# Laboratory results: patent US20230066830A1, “METHODS AND COMPOSITIONS FOR INDUCING APOPTOSIS IN CANCER STEM CELLS” (VIRGINIA COMMONWEALTH UNIVERSITY, priority 2019, published 2023)
# Tests used:
# [1] = biological target: T1, PDZ1 domain of MDA-9/Syntenin (PDZ12) (Homo sapiens, UniProt O00560); test: [15N,1H] HSQC chemical shift change ranking of compound affinity; format: binding; conditions: chemical shift changes (DPPM) of backbone amide of residue 147, 50 μM PDZ12, compound at 1:1 molar ratio
# T1 construct: HSQC spectrum of 50 μM PDZ12 caused by compound at 1:1 molar ratio
# T1 sequence (O00560 110-273 limits assumed): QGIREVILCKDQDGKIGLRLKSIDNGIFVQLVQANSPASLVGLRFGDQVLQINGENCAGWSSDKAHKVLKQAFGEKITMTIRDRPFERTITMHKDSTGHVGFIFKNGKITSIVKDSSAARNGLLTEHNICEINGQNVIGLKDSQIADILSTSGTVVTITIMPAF
# From the text: *Rank ordering of compound affinity for PDZ1 were estimated based on chemical shift changes (DPPM) of the backbone amide of residue 147 on the [^15N,^1H] […] Kd values reported in parentheses were obtained by NMR titration experiments following the chemical shifts of the backbone amide of residue 147 at different ligand concentrations.
# DU-145 and PC3-ML PCSCs = test: Live/Dead chemosensitivity of PCSCs with STAT3 inhibitor; format: cell-based, human; conditions: STAT3 inhibitor with docetaxel or trichostatin-A
# Description: Live/Dead cell imaging was performed to assess fluorescence based cell viability. Staining was performed as per the manufacturer's directions (Invitrogen™), which was followed by imaging utilizing laser confocal microscopy (Leica©). The images were analyzed by Zeiss© ZEN software. Docetaxel, STATTIC and Trichostatin-A (TSA) were obtained from Sigma. The PCSCs were serum-starved for 24 h and then treated with the drugs for 48 h at a 10 μM concentration (unless mentioned otherwise) prior to assessing the sensitivity of PCSCs to these drugs. DMSO treated cells were used as control. In vitro PDZ1i treatments occurred at 25 μM concentration. In vivo PDZ1i treatments occurred at 25 mg/kg body weight of the mice, 3 times a week for a month.
SMILES,Binding affinity ranking [1],effect on PCSC chemosensitivity (DU-145 and PC3-ML PCSCs)
O=c1c2c([nH]c3nc(NCc4cccs4)nn13)CCC2 [cmpd3],1 (1 for DPPM 0.00-0.02),
O=C(Nc1ccc(O)c(Cl)c1)c1nc2[nH]c3c(c(=O)n2n1)CCC3 [112F10],4 (4 for DPPM 0.06-0.08),
Cc1cc(=O)n2nc(SCc3ccccc3)nc2[nH]1 [cmpd4],4 (4 for DPPM 0.06-0.08),
Cc1cc(O)n2nc(C(=O)Nc3ccc(O)cc3)nc2n1 [112F1],1 (1 for DPPM 0.00-0.02),
COc1ccc(Br)c(-c2nnc(CCC(=O)Nc3cc(C)c(NC(=O)c4nc5[nH]c6c(c(=O)n5n4)CCC6)cc3C)o2)c1 [113B12],1 (1 for DPPM 0.00-0.02),
COc1cccc(NC(=O)c2nc3[nH]c(C)cc(=O)n3n2)c1 [cmpd8],3 (3 for DPPM 0.04-0.06),
O=C(Nc1ccc(O)c(F)c1)c1nc2[nH]c3c(c(=O)n2n1)CCC3 [112F12],2 (2 for DPPM 0.02-0.04),
Cc1cc(=O)n2nc(NCc3ccccc3)nc2[nH]1 [cmpd1],2 (2 for DPPM 0.02-0.04),
Cc1cc(NC(=O)c2nc3[nH]c4c(c(=O)n3n2)CCC4)c(C)cc1NC(=O)CCc1nnc(-c2ccsc2)o1 [113B11],3 (3 for DPPM 0.04-0.06),
Cc1cc(NC(=O)c2nc3[nH]c4c(c(=O)n3n2)CCC4)c(C)cc1NC(=O)CCc1nnc(-c2cccc(C(F)(F)F)c2)o1 [112H9],2 (2 for DPPM 0.02-0.04),
O=c1c2c([nH]c3nc(COc4ccccc4)nn13)CCC2 [cmpd11],5 (5 for DPPM 0.08-0.1),
O=c1[nH]c2sc3c(c2c2ncnn12)CCCC3 [cmpd6],1 (1 for DPPM 0.00-0.02),
Cc1cc(=O)n2nc(C(=O)Nc3ccc(O)c(F)c3)nc2[nH]1 [112G2],4 (4 for DPPM 0.06-0.08),
Cc1cc(=O)n2nc(C(=O)Nc3ccc4c(c3)OCO4)nc2[nH]1 [cmpd9],3 (3 for DPPM 0.04-0.06),
Cc1cc(=O)n2nc(C(=O)Nc3cccc(Cl)c3)nc2[nH]1 [cmpd10],4 (4 for DPPM 0.06-0.08),
Cc1cc(=O)n2nc(C(=O)Nc3ccc4c(c3)OCCO4)nc2[nH]1 [cmpd7],2 (2 for DPPM 0.02-0.04),

SMILES,Binding affinity ranking [1],effect on PCSC chemosensitivity (DU-145 and PC3-ML PCSCs)
O=c1c2c([nH]c3nc(CCc4ccccc4)nn13)CCC2 [cmpd13],3 (3 for DPPM 0.04-0.06),
O=C(Nc1ccc(O)cc1)c1nc2[nH]c3c(c(=O)n2n1)CCC3 [112E12],1 (1 for DPPM 0.00-0.02),
Nc1ccc(NC(=O)c2nc3[nH]c4c(c(=O)n3n2)CCC4)cc1 [112G11],2 (2 for DPPM 0.02-0.04),
Cc1cc(=O)n2nc(COc3ccccc3)nc2[nH]1 [30A9],4 (4 for DPPM 0.06-0.08),
Cc1c(C)c(NC(=O)c2nc3[nH]c4c(c(=O)n3n2)CCC4)c(C)c(C)c1N [113B8],5 (5 for DPPM 0.08-0.1),
O=[N+]([O-])c1ccc2c(c1)S(=O)(=O)C=C2 [STATTIC],,caused chemosensitivity to both docetaxel and trichostatin-A
Cc1cc(NC(=O)c2nc3[nH]c4c(c(=O)n3n2)CCC4)c(C)cc1NC(=O)CCc1nnc(-c2ccccc2)o1 [113B7],4 (4 for DPPM 0.06-0.08),
Cc1[nH]c2nc(C(=O)NCc3ccccc3)nn2c(=O)c1C [cmpd5],2 (2 for DPPM 0.02-0.04),
Cc1cc(NC(=O)c2nc3[nH]c4c(c(=O)n3n2)CCC4)c(C)cc1NC(=O)Cc1ccc(-c2ccccc2)cc1 [113B9],N.B.,
CCCc1cc(=O)n2nc(COc3ccccc3)nc2[nH]1 [cmpd14],1 (1 for DPPM 0.00-0.02),
Cc1cc(=O)n2nc(C(=O)Nc3ccc(O)cc3)nc2[nH]1 [112D11],2 (2 for DPPM 0.02-0.04),
Cc1cc(=O)n2nc(CCc3ccccc3)nc2[nH]1 [cmpd2],3 (3 for DPPM 0.04-0.06),
Cc1cc(=O)n2nc(C(=O)Nc3ccc(N)cc3)nc2[nH]1 [112E7],1 (1 for DPPM 0.00-0.02),
Cc1cc(=O)n2nc(C(=O)Nc3cc(Cl)c(N)cc3Cl)nc2[nH]1 [112G4],6 (6 for DPPM above 0.1),
Cc1cc(=O)n2nc(C(=O)Nc3cc(Cl)c(O)c(Cl)c3)nc2[nH]1 [112G1],6 (6 for DPPM above 0.1),
